For five compounds, IC50 results are on record in BindingDB's records for doi:10.1016/j.chembiol.2006.12.006 (Research Institute, Hospital For Sick Children, 2007).

Each structure is given as a SMILES string.

The target in this assay is T1, Beta-hexosaminidase subunit alpha (Homo sapiens, UniProt P06865).
T1 sequence (P06865 whole entry): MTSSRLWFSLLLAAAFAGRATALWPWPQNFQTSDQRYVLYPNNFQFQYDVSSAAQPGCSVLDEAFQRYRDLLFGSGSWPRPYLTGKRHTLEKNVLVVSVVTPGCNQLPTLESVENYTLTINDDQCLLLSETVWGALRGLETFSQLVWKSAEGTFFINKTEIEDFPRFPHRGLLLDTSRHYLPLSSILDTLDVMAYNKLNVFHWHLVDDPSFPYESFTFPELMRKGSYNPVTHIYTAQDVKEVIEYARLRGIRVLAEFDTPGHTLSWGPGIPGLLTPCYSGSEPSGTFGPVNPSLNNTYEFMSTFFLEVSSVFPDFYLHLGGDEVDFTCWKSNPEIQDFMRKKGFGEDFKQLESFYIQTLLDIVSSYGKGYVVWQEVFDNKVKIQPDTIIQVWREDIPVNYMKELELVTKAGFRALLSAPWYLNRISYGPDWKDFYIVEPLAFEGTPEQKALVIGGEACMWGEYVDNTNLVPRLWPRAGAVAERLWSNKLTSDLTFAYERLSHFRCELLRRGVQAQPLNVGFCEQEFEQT
The assay can be described thus: Enzyme Inhibition Assay. The note with it: 25 °C. From the text:
Enzyme assay based on 4-MU substrates with HTS to identify inhibitory compounds for Hex.

As a reminder, the IC50 is the midpoint of a concentration-inhibition curve. High values mean a need for much substance, low ones inhibition by little substance. On to `CC(O)CCN1C(=O)c2cccc3cccc(c23)C1=O` (stereo not given) [M-31867], for which the IC50 was 31 µM. This counts as double-digit micromolar.
As for `O=C1c2cccc3cccc(c23)C(=O)N1CC1CCCO1` (stereo not given) [M-31860], the figure is 138 µM.
The compound `O=C1NC(=O)c2cccc3cccc1c23` [BTB12933] displayed a concentration for half-maximal inhibition (IC50) of 18 µM.
As for `O=C1c2cccc3cccc(c23)C(=O)N1CCCc1ccccn1` [M-31862], the figure is 108 µM; as for `O=C1c2cccc3cccc(c23)C(=O)N1CCCO` [5141402], 16 µM.
